# Assay results published in patent publication US10093627B2, “Tetrahydroquinoline derivatives and their use as Epac inhibitors” (Institut National de la Sante et de la Recherche Medicale …, priority 2012, dated 2018).
# Legend:
# [1] = tested on: Epac1-induced H-Ras activation in HEK293 cells; experiment: Epac1-induced H-Ras activation, H-Ras-GTP pull-down in HEK293 cells; assay type: cell-based
# Protocol: The effects of CE3F4 to prevent Epac1-induced H-Ras activation was determined by extraction of GTP-loaded H-Ras from cell lysates with the immobilized Ras-binding domain of Raf1.
# HEK293 cells (FIG. 3A) or rat neonatal cardiac myocytes (FIG. 3B) were transfected with Epac1. 24 h after transfection, cells were preincubated or not with CE3F4 for 30 min and were then treated or not with Sp-007 (10 μM) for 10 min. In FIG. 3C, HEK293 cells overexpressing β1-AR and transfected with Epac1 were pretreated or not with 20 μM of CE3F4 for 30 min and stimulated or not with Iso for 10 min. Amounts of H-Ras-GTP were determined by pull-down assays. The bar graph represents the mean±S.E.M. of 5 (FIG. 3A) or 2 (FIG. 3B, 3C) independent experiments. Results are expressed as the percentage of unstimulated control cells.
# Ras and Rap1 pull-down experiments were performed using a GST fusion protein containing respectively the Ras binding domain of Raf1-RBD and the Rap1 binding domain of Ral-GDS as previously described (Métrich et al., 2008). Cells were starved for 1 h before stimulation in MEM free with penicillin-streptomycin (1%). […]
# [2] = target: T1, Epac1 (Homo sapiens, UniProt O95398); experiment: Epac1 nucleotide exchange activity, multipoint (time-course) method, bGDP-loaded GST-Rap1A; assay type: biochemical; conditions: 20 μM CE3F4, single dose; 2 μM compound 007; FIG. 1
# T1 construct: Recombinant human Epac1 (residues 149-881), deleted of its Dishevelled, Egl-10, and Pleckstrin (DEP) domain; made in house
# T1 sequence (O95398 149-881 isoform O95398-3): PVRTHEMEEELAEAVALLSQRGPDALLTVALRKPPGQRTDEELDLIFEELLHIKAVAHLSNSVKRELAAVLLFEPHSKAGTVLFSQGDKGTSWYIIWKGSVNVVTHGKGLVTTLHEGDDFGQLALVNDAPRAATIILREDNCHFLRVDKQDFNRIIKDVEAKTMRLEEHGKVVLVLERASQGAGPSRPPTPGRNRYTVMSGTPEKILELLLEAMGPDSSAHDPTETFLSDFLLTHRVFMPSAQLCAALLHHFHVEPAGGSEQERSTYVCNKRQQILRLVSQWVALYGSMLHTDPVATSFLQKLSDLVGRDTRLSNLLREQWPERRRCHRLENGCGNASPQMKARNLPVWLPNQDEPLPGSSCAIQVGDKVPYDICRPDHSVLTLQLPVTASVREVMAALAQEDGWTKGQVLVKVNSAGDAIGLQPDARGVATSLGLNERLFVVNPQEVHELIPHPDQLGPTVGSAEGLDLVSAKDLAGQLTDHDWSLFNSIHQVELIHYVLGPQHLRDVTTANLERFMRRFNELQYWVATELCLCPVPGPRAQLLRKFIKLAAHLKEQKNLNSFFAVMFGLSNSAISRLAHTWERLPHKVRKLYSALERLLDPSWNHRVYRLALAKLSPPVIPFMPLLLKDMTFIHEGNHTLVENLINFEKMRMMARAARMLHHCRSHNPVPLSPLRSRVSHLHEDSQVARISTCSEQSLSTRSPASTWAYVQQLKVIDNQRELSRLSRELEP
# Protocol: Epac1 nucleotide exchange activity was measured: • in the absence of compound 007, • or in the presence of 2 μM of compound 007, either alone or with 25 μM of compound 009, • or with 20 μM of CE3F4.
# Variations of RFU (Relative Fluorescence Units) were studied as a function of time and fitted to single exponentials. Reported values are mean±SEM (n=3). (see Materiel and Methods).
# Concerning FIG. 1, a “multipoint” (time-course) method was used. All components except the agonist (007) were mixed in a well and the exchange activity of Epac1 was initiated by injection of the agonist. GST-Rapt was preloaded with a fluorescent derivative of GDP, and the Epac1-catalyzed nucleotide exchange was measured using a large excess of non-fluorescent GDP, by taking advantage of the spectroscopic difference between free and Rap1-bound fluorescently labeled GDP. The principle of the method is similar to that reported in particular by Van den Berghe et al. (1997; Oncogene 15, 845), except that Bodipy FL-labeled GDP (bGDP) was used here, rather than 2′,3′-bis(O)—N-methylanthraniloyl-GDP (mant-GDP). […]
smiles,measurement,setting,value
CC1CCc2c(cc(Br)c(F)c2Br)N1C=O (racemic) [CE3F4],Amount of Ras-GTP induced by Iso,"[1]; HEK293 overexpressing β1-AR, transfected with Epac1, CE3F4 20 μM, 30 min, Iso 10 min, FIG. 3C",decreased
same,Amount of Ras-GTP induced by Sp-007,"[1]; HEK293 transfected with Epac1, CE3F4 30 min, Sp-007 10 μM, 10 min, FIG. 3A",decreased
same,Inhibition of the exchange reaction induced by Epac1 plus 007,[2],inhibited the exchange reaction
